Here are results for 25 compounds from patent US20260347338A1, “PYRIMIDINE/PYRIDINE DERIVATIVES OR SALTS THEREOF AND PHARMACEUTICAL COMPOSITIONS COMPRISING THE SAME” (YUHAN CORPORATION, priority 2023, published 2026).

Counter-ions that a name gives are not always drawn.

The target in this experiment is T1, human recombinant HPK1 (Homo sapiens, UniProt Q92918).
T1 construct: purchased BPS Bioscience
Nature of the experiment: Inhibitory activity against human recombinant HPK1 (TR-FRET). It is filed as biochemical. To be noted: ULight-p70S6K peptide, ATP at Km, room temperature, 1 hour, 0.32 to 1000 nM compound. Put shortly: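 IC50 classes A–D use 10, 50 and 100 nM cut-offs, derived from TR-FRET signal inhibition relative to DMSO controls. Human recombinant HPK1 phosphorylated ULight-p70S6K peptide at Km ATP for 1 h, room temperature, pH 7.4; test range 0.32–1000 nM final, detection with Eu-labelled antibody after EDTA quench.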
(In general: TR-FRET usually uses a lanthanide donor and a delayed reading to cut background.)

T1 sequence (Q92918 whole entry): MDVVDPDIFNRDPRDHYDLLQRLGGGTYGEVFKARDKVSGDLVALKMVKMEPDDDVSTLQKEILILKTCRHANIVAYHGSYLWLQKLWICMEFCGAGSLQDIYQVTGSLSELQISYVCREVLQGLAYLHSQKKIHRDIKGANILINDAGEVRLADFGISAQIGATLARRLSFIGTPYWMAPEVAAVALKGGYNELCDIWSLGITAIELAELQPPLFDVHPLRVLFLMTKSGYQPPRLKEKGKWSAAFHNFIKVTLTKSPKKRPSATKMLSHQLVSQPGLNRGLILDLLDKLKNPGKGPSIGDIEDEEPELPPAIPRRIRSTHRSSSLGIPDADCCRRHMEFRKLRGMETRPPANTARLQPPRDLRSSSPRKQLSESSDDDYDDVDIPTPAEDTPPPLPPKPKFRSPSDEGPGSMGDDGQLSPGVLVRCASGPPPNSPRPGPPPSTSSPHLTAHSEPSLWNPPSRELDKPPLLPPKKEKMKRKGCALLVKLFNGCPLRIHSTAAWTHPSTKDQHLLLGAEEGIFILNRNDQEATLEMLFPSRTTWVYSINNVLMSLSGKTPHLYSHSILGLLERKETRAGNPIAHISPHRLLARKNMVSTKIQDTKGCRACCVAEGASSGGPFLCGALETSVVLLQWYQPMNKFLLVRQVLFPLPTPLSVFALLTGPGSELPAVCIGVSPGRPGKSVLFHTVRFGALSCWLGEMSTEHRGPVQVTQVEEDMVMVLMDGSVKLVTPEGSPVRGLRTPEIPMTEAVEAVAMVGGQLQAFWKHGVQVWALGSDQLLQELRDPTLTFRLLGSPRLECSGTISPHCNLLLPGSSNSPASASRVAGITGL

By IC50 is commonly meant the concentration at which inhibition is half-maximal. As for `COc1cccc(F)c1-c1nccc(Nc2cc(N3CCC4(CCN(C)C4)CC3)c(-c3cnn(C(F)F)c3)cn2)n1` [Example 135, N-(5-(1-(difluoromethyl)-1H-pyrazol-4-yl)-4-(2-methyl-2,8-diazaspiro[4.5]decan-8-yl)pyridin-2-yl)-2-(2-fluoro-6-methoxyphenyl)pyrimidin-4-amine], the IC50 was at most 10 nM.

As for `COc1cccc(F)c1-c1nccc(Nc2cc(N3CCC4(CCN(C)C4)CC3)c(-c3ccc(N4CCOCC4)nc3)cn2)n1` [Example 137, N-(2-(2-fluoro-6-methoxyphenyl)pyrimidin-4-yl)-4-(2-methyl-2,8-diazaspiro[4.5]decan-8-yl)-6′-morpholino-[3,3′-bipyridin]-6-amine], the IC50 was at most 10 nM. Turning to `N[C@H]1CCCN(c2cc(Nc3cccc(N4CCOC4=O)n3)ncc2-c2ccc(N3CCOCC3)nc2)C1` [Example 138, (S)-3-(6-((4-(3-aminopiperidin-1-yl)-6′-morpholino-[3,3′-bipyridin]-6-yl)amino)pyridin-2-yl)oxazolidin-2-one hydrochloride], the IC50 fell in the range of 50 to 100 nM.

As for `COc1cccc(F)c1-c1nc(Nc2cc(N3CCC[C@H](O)C3)c(C#CC3CCOCC3)cn2)ccc1C(=O)O` [Example 139, 2-(2-fluoro-6-methoxyphenyl)-6-((4-((S)-3-hydroxypiperidin-1-yl)-5-((tetrahydro-2H-pyran-4-yl)ethynyl)pyridin-2-yl)amino)nicotinic acid], the IC50 is at most 10 nM. On to `COc1cccc(F)c1-c1nc(Nc2cc(N3CCC[C@H](O)C3)c(C#CC3CCOCC3)cn2)ccc1C(N)=O` [Example 140, 2-(2-fluoro-6-methoxyphenyl)-6-((4-((S)-3-hydroxypiperidin-1-yl)-5-((tetrahydro-2H-pyran-4-yl)ethynyl)pyridin-2-yl)amino)nicotinamide], for which the IC50 was at most 10 nM. As to `COc1cccc(F)c1-c1nc(Nc2cc(N3CCC[C@H](O)C3)c(-c3cnn(C(F)F)c3)cn2)ccc1C(=O)N(C)C` [Example 141, 6-((5-(1-(difluoromethyl)-1H-pyrazol-4-yl)-4-((S)-3-hydroxypiperidin-1-yl)pyridin-2-yl)amino)-2-(2-fluoro-6-methoxyphenyl)-N,N-dimethylnicotinamide], the IC50 was over 100 nM. With `COc1cccc(F)c1-c1nc(Nc2cc(N3CCC[C@H](O)C3)c(-c3cnn(C(F)F)c3)cn2)ccc1C(N)=O` [Example 142, 6-((5-(1-(difluoromethyl)-1H-pyrazol-4-yl)-4-((S)-3-hydroxypiperidin-1-yl)pyridin-2-yl)amino)-2-(2-fluoro-6-methoxyphenyl)nicotinamide], the IC50 was at most 10 nM. Regarding `COc1cccc(F)c1-c1nc(Nc2cc(N3CCC[C@H](O)C3)c(-c3cnn(CC(F)(F)F)c3)cn2)ccc1C(N)=O` [Example 143, 2-(2-fluoro-6-methoxyphenyl)-6-((4-((S)-3-hydroxypiperidin-1-yl)-5-(1-(2,2,2-trifluoroethyl)-1H-pyrazol-4-yl)pyridin-2-yl)amino)nicotinamide], the half-inhibitory concentration (IC50) is at most 10 nM.

Turning to `COCCn1cc(-c2cnc(Nc3ccc(C(N)=O)c(-c4c(F)cccc4OC)n3)cc2N2CCC[C@H](O)C2)cn1` [Example 144, 2-(2-fluoro-6-methoxyphenyl)-6-((4-((S)-3-hydroxypiperidin-1-yl)-5-(1-(2-methoxyethyl)-1H-pyrazol-4-yl)pyridin-2-yl)amino)nicotinamide], the IC50 is at most 10 nM. `COc1cccc(F)c1-c1nc(Nc2cc(N3CCC[C@H](O)C3)c(-c3cnn(C(F)F)c3)cn2)ccc1[N+](=O)[O-]` [Example 145, (3S)-1-(5-(1-(difluoromethyl)-1H-pyrazol-4-yl)-2-((6-(2-fluoro-6-methoxyphenyl)-5-nitropyridin-2-yl)amino)pyridin-4-yl)piperidin-3-ol]: the IC50 was at most 10 nM. For the compound `COc1cccc(F)c1-c1nc(Nc2cc(N3CCC[C@H](N)C3)c(-c3cnn(C(F)F)c3)cn2)ccc1[N+](=O)[O-]` [Example 146, 4-((S)-3-aminopiperidin-1-yl)-5-(1-(difluoromethyl)-1H-pyrazol-4-yl)-N-(6-(2-fluoro-6-methoxyphenyl)-5-nitropyridin-2-yl)pyridin-2-amine hydrochloride], the IC50 is at most 10 nM.

With `COc1cccc(F)c1-c1nccc(Nc2cc(N3CCC(CCN(C)C)CC3)c(-c3cnn(C(F)F)c3)cn2)n1` [Example 147, N-(5-(1-(difluoromethyl)-1H-pyrazol-4-yl)-4-(4-(2-(dimethylamino)ethyl)piperidin-1-yl)pyridin-2-yl)-2-(2-fluoro-6-methoxyphenyl)pyrimidin-4-amine], the IC50 is at most 10 nM.

For `COc1cccc(F)c1-c1nccc(Nc2cc(N3CCC(CCN(C)C)CC3)c(-c3cnn(CC(F)(F)F)c3)cn2)n1` [Example 148, N-(4-(4-(2-(dimethylamino)ethyl)piperidin-1-yl)-5-(1-(2,2,2-trifluoroethyl)-1H-pyrazol-4-yl)pyridin-2-yl)-2-(2-fluoro-6-methoxyphenyl)pyrimidin-4-amine], the IC50 was at most 10 nM.

`COc1cccc(F)c1-c1nccc(Nc2cc(N3CCC(CCN(C)C)CC3)c(-c3ccc(N4CCOCC4)nc3)cn2)n1` [Example 149, 4-(4-(2-(dimethylamino)ethyl)piperidin-1-yl)-N-(2-(2-fluoro-6-methoxyphenyl)pyrimidin-4-yl)-6′-morpholino-[3,3′-bipyridin]-6-amine]: the IC50 was at most 10 nM.

Regarding `COc1cccc(F)c1-c1nc(Nc2cc(N3CCC[C@H](O)C3)c(-c3cnn(C(F)F)c3)cn2)ccc1N` [Example 150, (3S)-1-(2-((5-amino-6-(2-fluoro-6-methoxyphenyl)pyridin-2-yl)amino)-5-(1-(difluoromethyl)-1H-pyrazol-4-yl)pyridin-4-yl)piperidin-3-ol], the IC50 was at most 10 nM. As for `COc1cccc(F)c1-c1nc(Nc2cc(N3CCC[C@H](N)C3)c(-c3cnn(C(F)F)c3)cn2)ccc1N` [Example 151, N^2-(4-((S)-3-aminopiperidin-1-yl)-5-(1-(difluoromethyl)-1H-pyrazol-4-yl)pyridin-2-yl)-6-(2-fluoro-6-methoxyphenyl)pyridin-2,5-diamine hydrochloride], the IC50 was at most 10 nM. With `COc1cccc(F)c1-c1nc(Nc2cc(N3CCC[C@H](N)C3)c(-c3cnn(CC(F)F)c3)cn2)ccc1[N+](=O)[O-]` [Example 152, 4-((S)-3-aminopiperidin-1-yl)-5-(1-(2,2-difluoroethyl)-1H-pyrazol-4-yl)-N-(6-(2-fluoro-6-methoxyphenyl)-5-nitropyridin-2-yl)pyridin-2-amine hydrochloride] the figure was at most 10 nM; with `COc1cccc(F)c1-c1nc(Nc2cc(N3CCC[C@H](N)C3)c(-c3cnn(CC(F)(F)F)c3)cn2)ccc1[N+](=O)[O-]` [Example 153, 4-((S)-3-aminopiperidin-1-yl)-N-(6-(2-fluoro-6-methoxyphenyl)-5-nitropyridin-2-yl)-5-(1-(2,2,2-trifluoroethyl)-1H-pyrazol-4-yl)pyridin-2-amine hydrochloride], at most 10 nM; with `COc1cccc(F)c1-c1nc(Nc2cc(N3CCC[C@H](N)C3)c(-c3cnn(C(F)(F)F)c3)cn2)ccc1[N+](=O)[O-]` [Example 154, 4-((S)-3-aminopiperidin-1-yl)-N-(6-(2-fluoro-6-methoxyphenyl)-5-nitropyridin-2-yl)-5-(1-(trifluoromethyl)-1H-pyrazol-4-yl)pyridin-2-amine hydrochloride], at most 10 nM.

`COc1cccc(F)c1-c1nc(Nc2cc(N3CCC[C@H](N)C3)c(C#CC3CCOCC3)cn2)ccc1[N+](=O)[O-]` [Example 155, 4-((S)-3-aminopiperidin-1-yl)-N-(6-(2-fluoro-6-methoxyphenyl)-5-nitropyridin-2-yl)-5-((tetrahydro-2H-pyran-4-yl)ethynyl)pyridin-2-amine hydrochloride]: the IC50 is at most 10 nM. Regarding `COc1cccc(F)c1-c1nc(Nc2cc(N3CCC[C@H](N)C3)c(C#Cc3cnn(C(F)(F)F)c3)cn2)ccc1[N+](=O)[O-]` [Example 156, 4-((S)-3-aminopiperidin-1-yl)-N-(6-(2-fluoro-6-methoxyphenyl)-5-nitropyridin-2-yl)-5-((1-(trifluoromethyl)-1H-pyrazol-4-yl)ethynyl)pyridin-2-amine hydrochloride], the IC50 was at most 10 nM. For the compound `COc1cc(F)cc(F)c1-c1nccc(Nc2cc(N3CCC[C@H](N)C3)c(-c3cnn(C(F)(F)F)c3)cn2)n1` [Example 157, (S)-N-(4-(3-aminopiperidin-1-yl)-5-(1-(trifluoromethyl)-1H-pyrazol-4-yl)pyridin-2-yl)-2-(2,4-difluoro-6-methoxyphenyl)pyrimidin-4-amine hydrochloride], the IC50 is at most 10 nM. Take `COc1cc(F)cc(F)c1-c1nccc(Nc2cc(N3CCC[C@H](N)C3)c(-c3cnn(CC(F)F)c3)cn2)n1` [Example 158, (S)-N-(4-(3-aminopiperidin-1-yl)-5-(1-(2,2-difluoroethyl)-1H-pyrazol-4-yl)pyridin-2-yl)-2-(2,4-difluoro-6-methoxyphenyl)pyrimidin-4-amine hydrochloride]: the IC50 was at most 10 nM. As to `COc1cc(F)cc(F)c1-c1nccc(Nc2cc(N3CCC[C@H](N)C3)c(C#Cc3cnn(C(F)(F)F)c3)cn2)n1` [Example 159, (S)-N-(4-(3-aminopiperidin-1-yl)-5-((1-(trifluoromethyl)-1H-pyrazol-4-yl)ethynyl)pyridin-2-yl)-2-(2,4-difluoro-6-methoxyphenyl)pyrimidin-4-amine hydrochloride], the IC50 is at most 10 nM.

Consider `COc1cccc(F)c1-c1nc(Nc2cc(N3CCC[C@H](O)C3)c(-c3cnn(CC(F)F)c3)cn2)ccc1C(N)=O` [Example 160, 6-((5-(1-(2,2-difluoroethyl)-1H-pyrazol-4-yl)-4-((S)-3-hydroxypiperidin-1-yl)pyridin-2-yl)amino)-2-(2-fluoro-6-methoxyphenyl)nicotinamide], for which the IC50 is at most 10 nM.
